Measurements taken from the CheMixHub viscosity set.

Experiment: xn = mol fraction of the nth substance listed

CCCCCCC(C)O (configuration not stated) + CCCCCCCCCCCCCC
298.15 K, 101 kPa
Conditions	viscosity [mPa·s]
x1 = 0.0003	2.081
x2 = 0.0555	5.619
x2 = 0.0999	5.163
x2 = 0.1555	4.632
x2 = 0.1998	4.238
x2 = 0.2554	3.786
x2 = 0.2998	3.455
x2 = 0.3555	3.081
x2 = 0.3999	2.813
x2 = 0.4554	2.519
x2 = 0.4999	2.314
x2 = 0.5555	2.098
x2 = 0.5998	1.957
x2 = 0.6554	1.82
x2 = 0.7	1.741
x2 = 0.7555	1.683
x2 = 0.8	1.668
x2 = 0.8555	1.688
x2 = 0.9	1.736
x2 = 0.9553	1.835

NCCNCCNCCN + O
viscosity [mPa·s]
Conditions	303.15 K	313.15 K	323.15 K
100 kPa, x1 = 0.006	–	0.78	–
100 kPa, x1 = 0.014	–	0.98	–
100 kPa, x1 = 0.03	–	1.69	–
100 kPa, x1 = 0.076	–	6.61	–
101 kPa, x1 = 0.0299	2.243	1.716	1.359
101 kPa, x1 = 0.0502	5.399	3.454	2.481
101 kPa, x1 = 0.0759	11.81	7.786	5.213
101 kPa, x1 = 0.1097	22.1	13.05	8.624
101 kPa, x1 = 0.156	38.42	22.22	14.34
101 kPa, x1 = 0.2233	60.39	32.27	20.32
101 kPa, x1 = 0.3302	82.48	42.63	26.01
101 kPa, x1 = 0.5259	75.67	38.19	21.84
101 kPa, x1 = 0.7007	50.89	27.24	15.21
101 kPa, x1 = 0.7994	39.76	21.64	12.67
101 kPa, x1 = 0.9242	31.35	16.13	10.61
